Test results reported in US4654373A, “Pharmaceutical formulations containing coenzyme Q10 suitable for topic administration” (Italfarmaco S.A., priority 1982, dated 1987).

Columns and labels:
[1] = system: carrageenin oedema in the rat paw; assay: Carrageenin oedema test in rats; type: in vivo, male rat; conditions: topical, both formulations
Procedure: To male rats weighing 220 g, fasted for 24 hours, 0.1 ml of 1% carrageenin suspension was injected into the plantar surface of a hind paw.
The control group, consisting of 25 animals, was administered with the only carrageenin, two other groups, consisting each of 25 animals, were topically administered with Coenzyme Q10 in form of two different formulations, in peanut oil and olive oil respectively, before the carrageenin injection. The results were expressed by means of a plethysmograph, which measured the size of the oedema 4 hours after the carrageenin injection.

male New Zealand rabbits = assay: Chronic toxicity, topical, 60 days, rabbits; conditions: 50 mg/kg/die, daily for 60 days
Procedure: (§1) These tests were carried out by administering locally on the skin of two groups of 30 male Wistar rats and of 6 male New Zealand rabbits with the skin epilated, the skin of one group being epilated and abraded, a pharmaceutical composition for a total amount of 50 mg/kg/die of Coenzyme Q10.
(§2) The administration went on daily for 60 consecutive days.
(§3) Before the start of the treatment and at the end all the animals were subjected to a series of controls and examinations regarding the ponderal increase, red-cells and white cells count, haemoglobin concentration in the blood, glycemia, azotemia, transaminases and blood total proteins. The urinary elimination was also tested. At the end of treatment all the animals were killed and accurate anatomopathological and histopathological examinations were performed on each animal with particular regard to the zones of treated skin.

pregnant Wistar rats = assay: Theratogenesis test, topical; conditions: topical on epilated and abraded skin, 50 mg/kg/die, seventh to fifteenth day of pregnancy
Procedure: In order to evaluate if the administration by the topical route of Coenzyme Q10 could interfere on the normal ebryonal or phaetal development, a pharmaceutical composition of the invention corresponding to an amount of Coenzyme Q10 of 50 mg/kg/die was spread on the epilated and abraded skin of ten pregnant Wistar rats.
The administration was carried out from the seventh to the fifteenth day of pregnancy.
The main internal organs were also subjected to observation.

dental caries = assay: Dental caries in hamster fed by cariogenic diet; type: in vivo; conditions: 25 mg/kg on the dental gingival region
[2] = Distribution after oral administration (HPLC); type: in vivo, rat; conditions: oral 50 mg/kg; for concentration at 0.5 h / concentration at 1 h / concentration at 6 h: rat; for concentration at 0.5 h: 30 min.; for concentration at 1 h: 60 min.
Procedure: Rats were treated with 50 mg/kg of Coenzyme Q10 by oral route and the concentration of the active principle was determined by using the HPLC method in several organs after 30 min., 60 min. and 6 hours.

[3] = oral route; cited from earlier work
experimental burns = assay: Experimental burn in the rat; type: in vivo, male Wistar rat
Wistar rats = assay: Acute toxicity by topical cutaneous route in rats; type: in vivo, Wistar rat; conditions: 5 mg up to 20 mg per cm^2 of depilated (intact or abraded) skin, immediate and eight days after treatment
Procedure: To assess the toxicity of the product administered by the topical cutaneous route, two groups of forty Wistar rats of both sexes in the same number, carefully depilated on the back, were used.
To a group of these rats, the depilated skin was also abraded. On the cutis so prepared after two days the compositions of the invention containing increasing amounts of Coenzyme Q10 in the ratio of 5 mg up to 20 mg for each square centimeter of depilated skin, were spread for each group of ten rats.

[4] = in excipients compatible with parenteral administration; cited from earlier work
[5] = Cutaneous concentration after topical administration (HPLC); type: in vivo, rat; conditions: topical 2 mg/cm^2, vegetal oils as solvents and excipients
Procedure: Rats were cutaneously treated with 2 mg/cm^2 of skin of Coenzyme Q10 and the concentration was measured by the HPLC method. The results are listed in Table 3 for two different vehicles.

[6] = Cutaneous absorption of Coenzyme Q10 in the rat; type: in vivo, male Wistar rat; conditions: topical, 5 mg/kg/cm^2 of skin
Procedure: In order to evaluate the cutaneous absorption of Coenzyme Q10 after its application on the skin a group of male Wistar rats of the average weight of 280 g was used. The animals were epilated on the back and a composition corresponding to a dose of Coenzyme Q10 of 5 mg/kg/cm^2 of skin was applied on the epilated back.
Samples of skin were then removed both from treated and untreated animals at intervals of 1, 3, 6 and 24 hours from treatment. The skin, together with the removed subcutaneous tissue, was homogenized and kept at -20° C. till the moment of analysis.
Samples of 5 g each of tissue were saponified in the presence of pyrogallole.
The fraction containing Coenzyme Q10 and other neutral fats was extracted with hydrocarbon solvents and purified chromatographically on column.
The spectrophotometric measurement was performed according to the method described by Linn B. O., Page A. C., Wong E. L., Gale, P. H., Shunk C. H., Folkers K. [J. Am. Chem. Soc., 81, 4007 (1959)].

[7] = cited from earlier work
[8] = Cutaneous absorption in volunteers; type: in vivo, human (health volunteers); conditions: human, skin, topical or ocular, 1 mg/cm^2, corneous layer removed, read-out: mean percent absorption
Procedure: For these tests the method described by Tauber and al. [Arzneimittel Forschung, 26, N7b, 1492 (1976)].
On 4 health volunteers, areas of about 30 cm^2 of skin whose corneous layer had been removed, were spread with a composition corresponding to 1 mg/cm^2 of Coenzyme Q10.
Immediately after the application and after 24 hours from the application on the skin, the composition not absorbed was removed by cotton-wool and the cotton-wool used for the removal was extracted with chloroform/ethanol.
After saponification in presence of pyrogallole the fraction containing Coenzyme Q10 and other neutral fact was extracted with hydrocarbon solvents and purified chromatographically on column.
The spectrophotometric measure was carried out according to the method described by Linn and al. [J. Am. Chem. Soc., 81, 4007 (1959)].

male Wistar rats = assay: Chronic toxicity, topical, 60 days, rats; conditions: 50 mg/kg/die, daily for 60 days
Procedure: as §1, §2, §3

holes in rabbits' ears = assay: Tissular regeneration and healing of holes in rabbits' ears; type: in vivo, New Zealand rabbit; conditions: topical composition, 5 mg/cc, versus not treated rabbits
New Zealand rabbits = assay: Acute toxicity by topical cutaneous route in rabbits; type: in vivo, New Zealand rabbit; conditions: 5 to 20 mg per cm^2 of depilated (intact or abraded) back, immediately and after 8 days
Procedure: Similar experiences were carried out also on a group of 8 New Zealand rabbits of both sexes, having the back depilated. The cutis of 4 of these animals was also abraded.
Two days after the depilation, the compositions of the invention, corresponding to doses of Coenzyme Q10 ranging from 5 to 20 mg per square centimeter of area of the depilated back, were spread on the cutis of the animals so prepared.

[9] = Distribution after parenteral (intramuscular) administration (HPLC); type: in vivo, rat; conditions: intramuscular 20 mg/kg; for concentration at 0.5 h / concentration at 1 h / concentration at 6 h: rat, im; for concentration at 0.5 h: 30 min.; for concentration at 1 h: 60 min.
Procedure: Rats were treated with 20 mg/kg of Coenzyme Q10 by intramuscular injection and the concentration of the active compound was determined by HPLC after 30 min., 60 min. and 6 hours.

[10] = system: dithranol (anthralin) induced inflammatory reaction; assay: Test of dithranol induced cutaneous inflammation; type: in vivo, male Guinea pig; conditions: topical 2 mg/cm^2 cutis, both in peanut and soybean oil, 48 hours
Procedure: Male Guinea pigs, weighing 330 g, were epilated at the back and, 24 hours after that, 20 mg of dithranol (anthralin) was intradermically injected into symmetric areas of the back.
Coenzyme Q10 dissolved in peanut and soybean oil was spread on the backs of the animals under test, at the dosage of 2 mg/cm^2 cutis, whereas the control group of animals was subjected to no treatment.
The treated area was covered with Nescofilm and bound up with Micropore.
48 Hours after the administration of the inflammatory agent, the size of the induced inflammatory area was evaluated.

[11] = heart, read-out: Mean tissutal concentration
[12] = kidney, read-out: Mean tissutal concentration
[13] = liver, read-out: Mean tissutal concentration
[14] = plasma, read-out: Mean plasmatic concentration
[15] = oral 50-100 mg/dosage (100-200 mg pro die)

In the case of `COC1=C(OC)C(=O)C(CC=C(C)CCC=C(C)CCC=C(C)CCC=C(C)CCC=C(C)CCC=C(C)CCC=C(C)CCC=C(C)CCC=C(C)CCC=C(C)C)=C(C)C1=O` [Coenzyme Q10, 2,3-dimethoxy-5-methyl-6-decaprenyl-benzoquinone], the “carrageenin oedema inhibition (in words)” value [1] is reported as “partially inhibited”, the “biological parameters versus untreated controls” value (male New Zealand rabbits) is reported as “did not show, in comparison with the untreated control animals, any significative difference in the different biological parameters considered” and the “histological examination of the skin” value (male New Zealand rabbits) is reported as “did not show any pathological change”. For the same molecule, the “alteration or malformation of phoetuses” value (pregnant Wistar rats) was “no alteration or malformation was noticed”, the “treated animals in which onset of dental caries is prevented” value (dental caries) was “more than 50%” and the “cutaneous concentration (in words)” value [2] was “no appreciable appearance of cutaneous concentration”. The “heart concentration change (in words)” value [2] was “substantial changes occur at the heart level”, the “plasmatic concentration change (in words)” value [2] was “negligeable” and the concentration at 0.5 h [2, 11] was 7100 ng/g. For the same molecule, the concentration at 1 h [2, 11] was 12300 ng/g, the concentration at 6 h [2, 11] was 14700 ng/g and the concentration at 0.5 h [2, 12] was 6500 ng/g. It also gave a concentration at 1 h [2, 12] of 10100 ng/g, a concentration at 6 h [2, 12] of 15600 ng/g and a concentration at 0.5 h [2, 13] of 4100 ng/g. The concentration at 1 h [2, 13] was 7100 ng/g, the concentration at 6 h [2, 13] was 9800 ng/g and the concentration at 0.5 h [2, 14] was 170 ng/mL. The concentration at 1 h [2, 14] was 190 ng/mL, the concentration at 6 h [2, 14] was 2700 ng/mL and the LD50 [3] was “higher than 4 g/kg”. For the same molecule, the “seriousness of the lesions (in words)” value (experimental burns; preventive topical application, 1-2 mg/cm^2 of skin) was “decreased in fact the seriousness of the lesions”, the “protective effect on experimental burn (in words)” value (experimental burns; topical route) was “protective effect” and the “reduction of the seriousness of the burn (Blue Evans)” value (experimental burns; treated daily, 1-2 mg/cm^2 of skin, 4 consecutive days preceding burn induction) was “more than 50%”. The “seriousness of the burn versus control rats (Blue Evans)” value (experimental burns; treated only once half an hour before burn induction) was “not significantly different”, the “mortality, toxic effect or intolerance” value (Wistar rats) was “did not show the appearance of any mortality cases, toxic effect or intolerance” and the “solubility (in words)” value [4] was “very low solubility”. The “concentration at the cutis level (in words)” value [5] was “A good increase”, the “time of highest concentrations in cutaneous tissue” value [6] was “from the third to the sixth hour after the administration” and the “clinical results (in words)” value [7, 15] was “satisfactory clinical results”. The “side-effects (in words)” value [7, 15] was “increases, sometimes intolerably, the side-effects of the drug”, the “change in Coenzyme Q10 in peripheral tissues (in words)” value ([7]; oral administration of high doses) was “no changes in Coenzyme Q10 are detectable” and the Fa at 24 h [8] was 18.5 ± 6.2%. For the same molecule, the “biological parameters versus untreated controls” value (male Wistar rats) was “did not show, in comparison with the untreated control animals, any significative difference in the different biological parameters considered”, the “histological examination of the skin” value (male Wistar rats) was “did not show any pathological change” and the “tissular regeneration and healing processes” value (holes in rabbits' ears) was “much faster than in the not treated rabbits”. The “mortality or clear toxicity” value (New Zealand rabbits) was “neither immediately after the administration nor after 8 days, mortality cases or clear toxicity were noticed”, the “cutaneous concentration (in words)” value [9] was “no concentration in the cutis is present at any time” and the concentration at 0.5 h [9, 11] was 10500 ng/g. The concentration at 1 h [9, 11] was 14300 ng/g, the concentration at 6 h [9, 11] was 16200 ng/g and the concentration at 0.5 h [9, 12] was 9500 ng/g. It also gave a concentration at 1 h [9, 12] of 11500 ng/g, a concentration at 6 h [9, 12] of 10200 ng/g and a concentration at 0.5 h [9, 13] of 11700 ng/g. For the same molecule, the concentration at 1 h [9, 13] was 12600 ng/g, the concentration at 6 h [9, 13] was 14400 ng/g and the concentration at 0.5 h [9, 14] was 270 ng/mL. The concentration at 1 h [9, 14] was 940 ng/mL, the concentration at 6 h [9, 14] was 800 ng/mL and the “decrease of inflammatory areas with respect to non-treated animals” value [10] was 50%.
